Results: patent US20250120967A1, “TYROSINE KINASES INHIBITORS AND USES THEREOF” (GREAT NOVEL THERAPEUTICS BIOTECH & MEDICALS CORPORATION, priority 2023, published 2025)

How the values were obtained:
Test in all cases: NCI-60 screen (SRB)
Format in all cases: cell-based
[1] = system: OVCAR-3; settings: Homo sapiens; OVCAR-3, Ovarian Cancer
Description: (§1) The human tumor cell lines of the cancer screening panel are grown in RPMI 1640 medium containing 5% fetal bovine serum and 2 mM L-glutamine. For a typical screening experiment, cells are inoculated into 96 well microtiter plates in 100 μL at plating densities ranging from 5,000 to 40,000 cells/well depending on the doubling time of individual cell lines. After cell inoculation, the microtiter plates are incubated at 37° C., 5% CO2, 95% air and 100% relative humidity for 24 h prior to addition of experimental drugs. After 24 h, two plates of each cell line are fixed in situ with TCA, to represent a measurement of the cell population for each cell line at the time of drug addition (Tz). Experimental drugs are solubilized in dimethyl sulfoxide at 400-fold the desired final maximum test concentration and stored frozen prior to use. At the time of drug addition, an aliquot of frozen concentrate is thawed and diluted to twice the desired final maximum test concentration with complete medium containing 50 µg/ml gentamicin. An additional four, 10-fold or M log serial dilutions are made to provide a total of five drug concentrations plus control. Aliquots of 100 μl of these different drug dilutions are added to the appropriate microtiter wells already containing 100 μl of medium, resulting in the required final drug concentrations. Following drug addition, the plates are incubated for an additional 48 h at 37° C., 5% CO2, 95% air, and 100% relative humidity. For adherent cells, the assay is terminated by the addition of cold TCA. Cells are fixed in situ by the gentle addition of 50 μl of cold 50% (w/v) TCA (final concentration, 10% TCA) and incubated for 60 minutes at 4° C. The supernatant is discarded, and the plates are washed five times with tap water and air dried. Sulforhodamine B (SRB) solution (100 l) at 0.4% (w/v) in 1% acetic acid is added to each well, and plates are incubated for 10 minutes at room temperature. After staining, unbound dye is removed by washing five times with 1% acetic acid and the plates are air dried. Bound stain is subsequently solubilized with 10 mM trizma base, and the absorbance is read on an automated plate reader at a wavelength of 515 nm. For suspension cells, the methodology is the same except that the assay is terminated by fixing settled cells at the bottom of the wells by gently adding 50 μl of 80% TCA (final concentration, 16% TCA).

[2] = system: RPMI-8226; settings: Homo sapiens; RPMI-8226, Leukemia
Description: as §1

[3] = system: MCF7; settings: Homo sapiens; MCF7, Breast Cancer
Description: as §1

[4] = system: HOP-92; settings: Homo sapiens; HOP-92, Non-Small Cell Lung Cancer
Description: as §1

[5] = system: IGROV1; settings: Homo sapiens, IGROV-1; IGROV1, Ovarian Cancer
Description: as §1

[6] = system: NCI/ADR-RES; settings: Homo sapiens, Ovarian Cancer
Description: as §1

[7] = system: MDA-MB-468; settings: Homo sapiens; MDA-MB-468, Breast Cancer
Description: as §1

[8] = system: HS 578T; settings: Homo sapiens, Breast Cancer
Description: as §1

[9] = system: A498; settings: Homo sapiens; A498, Renal Cancer
Description: as §1

[10] = system: T-47D; settings: Homo sapiens, T47D, Breast Cancer
Description: as §1

[11] = system: PC-3; settings: Homo sapiens; PC-3, Prostate Cancer
Description: as §1

[12] = system: NCI-H23; settings: Homo sapiens; NCI-H23, Non-Small Cell Lung Cancer
Description: as §1

[13] = system: MOLT-4; settings: Homo sapiens; MOLT-4, Leukemia
Description: as §1

[14] = system: DU-145; settings: Homo sapiens; DU-145, Prostate Cancer
Description: as §1

[15] = system: CCRF-CEM; settings: Homo sapiens, Leukemia
Description: as §1

[16] = system: M14; settings: Homo sapiens; M14, Melanoma
Description: as §1

[17] = system: NCI-H226; settings: Homo sapiens; NCI-H226, Non-Small Cell Lung Cancer
Description: as §1

[18] = system: K-562; settings: Homo sapiens, K562; K-562, Leukemia
Description: as §1

[19] = system: SW-620; settings: Homo sapiens; SW-620, Colon Cancer
Description: as §1

[20] = system: U251; settings: Homo sapiens, U-251; U251, CNS Cancer
Description: as §1

[21] = system: LOX IMVI; settings: Homo sapiens, Melanoma
Description: as §1

[22] = system: TK-10; settings: Homo sapiens; TK-10, Renal Cancer
Description: as §1

[23] = system: COLO 205; settings: Homo sapiens; COLO 205, Colon Cancer
Description: as §1

[24] = system: ACHN; settings: Homo sapiens, Renal Cancer
Description: as §1

[25] = system: NCI-H460; settings: Homo sapiens; NCI-H460, Non-Small Cell Lung Cancer
Description: as §1

[26] = system: SN12C; settings: Homo sapiens, Renal Cancer
Description: as §1

[27] = system: SNB-75; settings: Homo sapiens; SNB-75, CNS Cancer
Description: as §1

COc1cc2nccc(Oc3ccc(NC(=O)C4(NC(=O)c5ccc(F)cc5)CC4)cc3F)c2cc1OC [Cbo-02, N-(1-((4-((6,7-diMethoxyquinolin-4-yl)oxy)-3-fluorophenyl)carbamoyl)cyclopropyl)-4-fluorobenzamide]
GI50 [1]: 2400 nM | GI50 [2]: 4570 nM | GI50 [3]: 3260 nM | GI50 [4]: 1260 nM | GI50 [5]: 4480 nM | GI50 [6]: 4900 nM | GI50 [7]: 1720 nM | GI50 [8]: 2540 nM | GI50 [9]: 3280 nM | GI50 [10]: 2120 nM | GI50 [11]: 3940 nM | GI50 [12]: 2060 nM | GI50 [13]: 5040 nM | GI50 [14]: 3360 nM | GI50 [15]: 2240 nM | GI50 [16]: 1910 nM | GI50 [17]: 1580 nM | GI50 [18]: 3050 nM | GI50 [19]: 1630 nM | GI50 [20]: 2880 nM | GI50 [21]: 1990 nM | GI50 [22]: 1830 nM | GI50 [23]: 1750 nM | GI50 [24]: 2140 nM | GI50 [25]: 2750 nM | GI50 [26]: 1210 nM

COc1cc2nccc(Oc3ccc(NC(=O)C4(NC(=O)c5ccc(F)cc5)CC4)cc3F)c2cc1Oc1ccc(N)cc1F [Cbo-10]
GI50 [1]: > 100000 nM | GI50 [2]: 2990 nM | GI50 [27]: > 100000 nM | GI50 [3]: 771 nM | GI50 [4]: 141 nM | GI50 [5]: 714 nM | GI50 [6]: > 100000 nM | GI50 [7]: 1730 nM | GI50 [8]: 5320 nM | GI50 [9]: > 100000 nM | GI50 [10]: 1650 nM | GI50 [11]: > 100000 nM | GI50 [12]: 1040 nM | GI50 [13]: 777 nM | GI50 [14]: 1700 nM | GI50 [15]: 436 nM | GI50 [16]: 1490 nM | GI50 [17]: 5290 nM | GI50 [18]: 1740 nM | GI50 [19]: 661 nM | GI50 [20]: > 100000 nM | GI50 [21]: 1780 nM | GI50 [22]: 455 nM | GI50 [23]: 931 nM | GI50 [24]: 683 nM | GI50 [25]: 1300 nM | GI50 [26]: 111 nM

COc1cc2nccc(Oc3ccc(NC(=O)C4(C(=O)Nc5ccc(F)cc5)CC4)cc3F)c2cc1Oc1ccc(N)cc1F [Cbo-23]
GI50 [1]: 829 nM | GI50 [27]: 178 nM | GI50 [3]: 294 nM | GI50 [4]: < 10 nM | GI50 [5]: 264 nM | GI50 [6]: 2040 nM | GI50 [7]: 1120 nM | GI50 [8]: 148 nM | GI50 [9]: 459 nM | GI50 [10]: 617 nM | GI50 [11]: 1600 nM | GI50 [12]: 339 nM | GI50 [13]: 1230 nM | GI50 [14]: 429 nM | GI50 [15]: 553 nM | GI50 [16]: 459 nM | GI50 [17]: 276 nM | GI50 [18]: 130 nM | GI50 [19]: 449 nM | GI50 [20]: 2380 nM | GI50 [21]: 306 nM | GI50 [22]: 224 nM | GI50 [23]: 283 nM | GI50 [24]: 292 nM | GI50 [25]: 457 nM | GI50 [26]: 199 nM
